In patent US11192867B2, “Microbiocidal oxadiazole derivatives” (SYNGENTA PARTICIPATIONS AG, priority 2016, dated 2021):

Tests used:
[1] = tested on: Puccinia recondita f. sp. Tritici; experiment: Fungicidal activity against Puccinia recondita f. sp. Tritici / wheat / leaf disc preventative (brown rust); assay type: in vivo; settings: foliar, 200 ppm in the applied formulation, wheat leaf segments cv. Kanzler, inoculated 1 day after application, vs untreated control, read-out: disease control
In short: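 Compound, diluted from DMSO solution into aqueous 0.025% Tween20, is sprayed at 200 ppm onto cut wheat segments (cv. Kanzler) placed on water agar. One day on, segments receive a fungal spore suspension and are incubated at 19° C., 75% rh, 12 h photoperiod, with % control vs untreated scored at 7–9 days.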

[2] = tested on: Glomerella lagenarium (Colletotrichum lagenarium); experiment: Fungicidal activity against Glomerella lagenarium (Colletotrichum lagenarium) liquid culture / cucumber / preventative (anthracnose); assay type: cell-based; settings: Colletotrichum orbiculare, 72 h; 20 ppm in the applied formulation; liquid culture (PDB), growth inhibition measured photometrically 3 to 4 days after application; vs untreated control; read-out: disease control
In short: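 Photometric measurement of fungal growth inhibition 3 to 4 days after application gives percent activity relative to untreated check. Conidia were suspended in potato dextrose broth and combined with DMSO compound solutions; incubation at 24° C.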

Phakopsora pachyrhizi = experiment: Fungicidal activity against Phakopsora pachyrhizi / soybean / leaf disc preventative (Asian soybean rust); assay type: in vivo; settings: foliar, 200 ppm in the applied formulation, soybean leaf disks, vs untreated control, read-out: disease control
In short: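 Soybean leaf discs on water agar sprayed with compound diluted in water, then inoculated with spores on the lower surface one day later. Kept 24-36 h dark, 20 °C, 75% rh, then 12 h light/12 h dark. Percent disease control versus untreated scored 12-14 days after application.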

[3] = tested on: Puccinia recondita f. sp. Tritici; experiment: Fungicidal activity against Puccinia recondita f. sp. Tritici / wheat / leaf disc curative (brown rust); assay type: in vivo; settings: foliar, 24 h, 200 ppm in the applied formulation, wheat leaf segments cv. Kanzler, applied 1 day after inoculation, vs untreated control, read-out: disease control
In short: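 Read-out is percent disease control relative to untreated segments, assessed 6 to 8 days after treatment once check disease is adequate. Kanzler wheat leaf segments on agar receive fungal spores, then test compound (DMSO stock diluted in 0.025% Tween20 or water) 1 day later, under 19° C and 75% relative humidity.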

SMILES | melting point | pest or weed control at 200 ppm [1] | inhibition of growth at 20 ppm [2] | pest or weed control at 200 ppm (Phakopsora pachyrhizi) | pest or weed control at 200 ppm [3]
CON=CCCNC(=O)c1ccc(-c2noc(C(F)(F)F)n2)cc1 [Compound 1.152, N-(3-methoxyimino-propyl)-4-[5-(trifluoromethyl)-1,2,4-oxadiazol-3-yl]benzamide] | 136 to 140 °C | ≥ 80% | ≥ 80% | ≥ 80% | ≥ 80%
CC(/C=N\OCCF)NC(=O)c1ccc(-c2noc(C(F)(F)F)n2)cc1 (centres unmarked) [Compound 1.150, N-[(2Z)-2-(2-fluoroethoxyimino)-1-methyl-ethyl]-4-[5-(trifluoromethyl)-1,2,4-oxadiazol-3-yl]benzamide] | 172 to 173 °C | ≥ 80% | ≥ 80% | ≥ 80% | ≥ 80%
CO/N=C(\C)CNC(=O)c1ccc(-c2noc(C(F)(F)F)n2)cc1 [Compound 1.13, N-[(2E)-2-methoxyimino-propyl]-4-[5-(trifluoromethyl)-1,2,4-oxadiazol-3-yl]benzamide] | 145 to 146 °C | ≥ 80% | ≥ 80% | ≥ 80% | ≥ 80%
CCON=CCNC(=O)c1ccc(-c2noc(C(F)(F)F)n2)cc1 [Compound 1.11, N-(2-ethoxyiminoethyl)-4-[5-(trifluoromethyl)-1,2,4-oxadiazol-3-yl]benzamide] | 156 to 158 °C | ≥ 80% | ≥ 80% | ≥ 80% | ≥ 80%
CON=CC(C)NC(=O)c1ccc(-c2noc(C(F)(F)F)n2)cc1 (centres unmarked) [Compound 1.3, N-(2-methoxyimino-1-methyl-ethyl)-4-[5-(trifluoromethyl)-1,2,4-oxadiazol-3-yl]benzamide] | 164 to 165 °C | ≥ 80% | ≥ 80% | ≥ 80% | ≥ 80%
CCO/N=C/C(C)NC(=O)c1ccc(-c2noc(C(F)(F)F)n2)cc1 (centres unmarked) [Compound 1.8, N-[(2E)-2-ethoxyimino-1-methyl-ethyl]-4-[5-(trifluoromethyl)-1,2,4-oxadiazol-3-yl]benzamide] | 142 to 143 °C | ≥ 80% | ≥ 80% | ≥ 80% | ≥ 80%
CON=C(C)CNC(=O)c1ccc(-c2noc(C(F)(F)F)n2)cc1F [Compound 1.157, 2-fluoro-N-(2-methoxyimino-propyl)-4-[5-(trifluoromethyl)-1,2,4-oxadiazol-3-yl]benzamide] | 122 to 124 °C | ≥ 80% | ≥ 80% | ≥ 80% | ≥ 80%
CO/N=C(\C)C(NC(=O)c1ccc(-c2noc(C(F)(F)F)n2)cc1)OC (centres unmarked) [Compound 1.7, N-[(2E)-1-methoxy-2-methoxyimino-propyl]-4-[5-(trifluoromethyl)-1,2,4-oxadiazol-3-yl]benzamide] | 100.7 to 106.9 °C | ≥ 80% | ≥ 80% | ≥ 80% | ≥ 80%
O=C(NCC=NOCCF)c1ccc(-c2noc(C(F)(F)F)n2)cc1 [Compound 1.148, N-[2-(2-fluoroethoxyimino)ethyl]-4-[5-(trifluoromethyl)-1,2,4-oxadiazol-3-yl]benzamide] | 145 to 146 °C | ≥ 80% | ≥ 80% | ≥ 80% | ≥ 80%
CCON=CCCNC(=O)c1ccc(-c2noc(C(F)(F)F)n2)cc1 [Compound 1.153, N-(3-ethoxyiminopropyl)-4-[5-(trifluoromethyl)-1,2,4-oxadiazol-3-yl]benzamide] | 132 to 136 °C | ≥ 80% | ≥ 80% | ≥ 80% | ≥ 80%
O=C(NCCC=NO)c1ccc(-c2noc(C(F)(F)F)n2)cc1 [Compound 1.154, N-(3-hydroxyimino-propyl)-4-[5-(trifluoromethyl)-1,2,4-oxadiazol-3-yl]benzamide] | 180 to 183 °C | ≥ 80% | ≥ 80% | ≥ 80% | ≥ 80%
CC(/C=N/OCCF)NC(=O)c1ccc(-c2noc(C(F)(F)F)n2)cc1 (centres unmarked) [Compound 1.149, N-[(2E)-2-(2-fluoroethoxy-imino)-1-methyl-ethyl]-4-[5-(trifluoromethyl)-1,2,4-oxadiazol-3-yl]benzamide] | 138 to 139 °C | ≥ 80% | ≥ 80% | ≥ 80% | ≥ 80%
CCON=C(C)CNC(=O)c1ccc(-c2noc(C(F)(F)F)n2)cc1 [Compound 1.12, N-(2-ethoxyimino-propyl)-4-[5-(trifluoromethyl)-1,2,4-oxadiazol-3-yl]benzamide] | 135 to 136 °C | ≥ 80% | ≥ 80% | ≥ 80% | ≥ 80%
CON=CCNC(=O)c1ccc(-c2noc(C(F)(F)F)n2)cc1 [Compound 1.10, N-(2-methoxyimino-ethyl)-4-[5-(trifluoromethyl)-1,2,4-oxadiazol-3-yl]benzamide] | 155 to 157 °C | ≥ 80% | ≥ 80% | ≥ 80% | ≥ 80%

The next lines start with results.

melting point | SMILES | pest or weed control at 200 ppm [1] | inhibition of growth at 20 ppm [2] | pest or weed control at 200 ppm (Phakopsora pachyrhizi) | pest or weed control at 200 ppm [3]
98 to 100 °C | CON=CCCNC(=O)c1ccc(-c2noc(C(F)(F)F)n2)cc1F [Compound 1.163, 2-fluoro-N-(3-methoxyimino-propyl)-4-[5-(trifluoromethyl)-1,2,4-oxadiazol-3-yl]benzamide] | ≥ 80% | ≥ 80% | ≥ 80% | ≥ 80%
119 to 121 °C | CON=CC(C)NC(=O)c1ccc(-c2noc(C(F)(F)F)n2)c(F)c1 (centres unmarked) [Compound 1.159, 3-fluoro-N-(2-methoxyimino-1-methyl-ethyl)-4-[5-(trifluoromethyl)-1,2,4-oxadiazol-3-yl]benzamide] | ≥ 80% | ≥ 80% | ≥ 80% | ≥ 80%
108 to 110 °C | CCON=CCCNC(=O)c1ccc(-c2noc(C(F)(F)F)n2)c(F)c1 [Compound 1.161, N-(3-ethoxyiminopropyl)-3-fluoro-4-[5-(trifluoromethyl)-1,2,4-oxadiazol-3-yl]benzamide] | ≥ 80% | ≥ 80% | ≥ 80% | ≥ 80%
131 to 134 °C | CON=C(C)CNC(=O)c1ccc(-c2noc(C(F)(F)F)n2)c(F)c1 [Compound 1.164, 3-fluoro-N-(2-methoxyimino-propyl)-4-[5-(trifluoromethyl)-1,2,4-oxadiazol-3-yl]benzamide] | ≥ 80% | ≥ 80% | ≥ 80% | ≥ 80%
120 to 122 °C | CCON=C(C)CNC(=O)c1ccc(-c2noc(C(F)(F)F)n2)cc1F [Compound 1.158, N-(2-ethoxyiminopropyl)-2-fluoro-4-[5-(trifluoromethyl)-1,2,4-oxadiazol-3-yl]benzamide] | ≥ 80% | ≥ 80% | ≥ 80% | ≥ 80%
122 to 124 °C | CC(C)ON=CCCNC(=O)c1ccc(-c2noc(C(F)(F)F)n2)cc1 [Compound 1.168, N-(3-isopropoxyimino-propyl)-4-[5-(trifluoromethyl)-1,2,4-oxadiazol-3-yl]benzamide] | ≥ 80% | ≥ 80% | ≥ 80% | ≥ 80%
97 to 99 °C | CCON=CCCNC(=O)c1ccc(-c2noc(C(F)(F)F)n2)cc1F [Compound 1.162, N-(3-ethoxyiminopropyl)-2-fluoro-4-[5-(trifluoromethyl)-1,2,4-oxadiazol-3-yl]benzamide] | ≥ 80% | ≥ 80% | ≥ 80% | ≥ 80%
120 to 124 °C | CCON=C(C)CNC(=O)c1ccc(-c2noc(C(F)(F)F)n2)c(F)c1 [Compound 1.165, N-(2-ethoxyiminopropyl)-3-fluoro-4-[5-(trifluoromethyl)-1,2,4-oxadiazol-3-yl]benzamide] | ≥ 80% | ≥ 80% | ≥ 80% | ≥ 80%
